Source: US8450502B2, “Pharmaceutical compositions for inhibiting angiogenesis” (Industry-Academic Cooperation Foundation Yonsei University, priority 2008, dated 2013)

Legend:
[1] = target: T1, mitochondrial protein QP-C (Homo sapiens, UniProt P14927); test: Competitive binding assay by fluorescent staining in HUVECs; format: cell-based; conditions: for Inhibition of binding between coumarin-terpestacin and QP-C (blue fluorescence in the cytoplasm): HUVEC, pretreatment 24 hours with HDNT 10 μM or terpestacin 30 μM, coumarin-terpestacin 20 μM 2 hours
T1 construct: endogenous in cells; host or cells: HUVEC
T1 sequence (P14927 1-111): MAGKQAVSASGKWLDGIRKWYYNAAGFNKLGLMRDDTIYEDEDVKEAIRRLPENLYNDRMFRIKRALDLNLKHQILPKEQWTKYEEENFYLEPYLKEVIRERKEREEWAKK
Protocol: Human umbilical vein endothelial cells (HUVEC) were seeded on a 24-well plate (2×10^4 cells/well) and cultured in EBM-2 (LONZA®) medium containing 10% fetal bovine serum (INVITROGEN®). Then, the cells were washed with PBS buffer (pH 7.4), and the culture medium was replaced with a fresh one. The inventive compound HDNT (10 μM) or the compound terpestacin (30 μM) binding to QP-C was added to each well and the cells were incubated for 24 hours. A fluorescent dye coumarin (20 μM) and coumarin-conjugated terpestacin (20 μM) were each added to the control group and the treated group, followed by incubation for another 2 hours. The cells were washed with PBS buffer. Fluorescent intensity was observed under an IX70 fluorescent microscope (OLYMPUS®) and a microscopic image was taken (see FIG. 7).

[2] = tested on: human umbilical vein endothelial cells (HUVEC); test: HUVEC invasion assay (Transwell, VEGF); format: cell-based; conditions: VEGF 30 ng/mL, HDNT 2.5, 5 μM, 18 hours
Protocol: Invasion of human umbilical vein endothelial cells (HUVEC) was measured in vitro using a TRANSWELL® chamber system (Corning Costar) equipped with a polycarbonate filter. First, a lower part of the filter was coated with 10 μl of gelatin (10 mg/mL) for 1 hour, and an upper part of the filter was coated with 10 μl of MATRIGEL® (3 mg/mL) for 2 hours. […] The coated filter was placed on the TRANSWELL®, and HUVECs (1×10^5 cells/well) were inoculated on the upper part of the filter, followed by cell culture in an incubator for 18 hours. Then, the cells were fixed with 70% methanol and stained with hematoxylin/eosin. Total cells in one filter were microscopically counted to measure a degree of cell invasion (see FIG. 4).

[3] = tested on: mitochondrial membrane potential of HUVECs; test: Determination of mitochondrial membrane potential (JC-1 staining); format: cell-based, human; conditions: HUVEC, HDNT 1, 5, 10 μM, 4 hours
Protocol: Human umbilical vein endothelial cells (HUVEC) were seeded on a 24-well plate (2×10^4 cells/well) and cultured in EBM-2 (LONZA®) medium containing 10% fetal bovine serum (INVITROGEN®). Then, the cells were washed with PBS buffer (pH 7.4) and the culture medium was then replaced with a fresh one. The inventive compound HDNT (1, 5, 10 μM) was added to the culture medium and the cells were incubated for 4 hours. In order to measure changes of the mitochondrial membrane potential, the cells were stained with […] a lipophilic cationic probe 5,5′6,6′-tetrachloro-1,1′,3,3′-tetraethylbenzimidazole-carbocyanine iodide (JC-1, MOLECULAR PROBES®) for 15 min. The carbocyanine cationic dye forms a red fluorescent J-aggregate at a hyperpolarization membrane potential (to −140 mV), and the dye maintains a green fluorescent monomeric form at a depolarization membrane potential (to −100 mV). The stained cells were washed twice with PBS buffer. A microscopic image (×100) was obtained under an IX70 fluorescent microscope OLYMPUS®) (see FIG. 5).

[4] = tested on: QP-C-expressing bacteriophage T7 (human QP-C); test: Competitive binding assay by phage display; conditions: competitor 200 μM, biotinylated terpestacin 5 μM immobilized
Protocol: Bacteriophage T7 (NOVAGEN®) was purchased which encodes cDNA library obtained from live different human tissues (hepatoma, normal liver, dementia brain, normal brain, and normal stomach). A host cell E. coli BLT5615 was infected with Bacteriophage followed by amplification. Biotinylated terpestacin (5 μM) in TBS buffer (pH 7.5) was immobilized on a streptavidin-coated 96-well plate (Pierce Biotechnology), and then the amplified, bacteriophage T7 library (6×1.0^9 pfu/mL) was added to the terpestacin-immobilized wells. After being stirred at room temperature for 1 hour, bacteriophage T7 particles which were not hound to terpestacin were washed with TBS buffer to remove the non-bound bacteriophage T7 particles. Terpestacin-bound bacteriophage T7 particles were elated for 1 hour with addition of terpestacin (100 μM) dissolved in TBS buffer. The elated bacteriophage T7 particles were infected into E. coli strain BLT5615 cultured on LB agar medium. The thus-formed bacteriophage T7 plaques were isolated and DNA sequences were analyzed to obtain bacteriophage expressing a ubiquinone-binding protein (QP-C) of the mitochondria complex III.
QP-C-expressing bacteriophage T7 was infected into a host cell E. coli BLT5615, followed by amplification. […] The thus-formed bacteriophage plaques were counted and the results were compared between the treated group and the control group (see FIG. 6).

[5] = tested on: human umbilical vein endothelial cells (HUVEC); test: Tube formation of human umbilical vein endothelial cells (VEGF-induced, Matrigel); format: cell-based; conditions: VEGF 30 ng/mL, HDNT 2.5, 5 μM, 8 hours
Protocol: A 48-well plate was coated with 150 μl of Matrigel (10 mg/mL, Collaborative Biomedical Products), followed by polymerization at 37° C. for 2 hours. […] The cells were cultured in an incubator for 8 hours while observing morphological changes of the cells under a microscope.

purified QP-C protein = target: T2, purified QP-C protein (Homo sapiens, UniProt P14927); test: Competitive binding assay by surface plasmon resonance; conditions: compound 25 μM, QP-C protein 25 μM, biotinylated terpestacin 100 μM immobilized
T2 construct: GST (N, cleaved yes); made in house; host or cells: E. coli BL21
T2 sequence (P14927 1-111): T1 sequence (P14927 1-111)
Protocol: Using, liver tissue cDNA library as a template, a QP-C gene (GENBANK® Accession No. NM_006294 was amplified by polymerase chain reaction (PCR). Sequences of PCR primers used herein are as follows: forward primer 5′-[…]-3′, and reverse primer 5′-[…]-3′. The QP-C gene was inserted into a multi cloning site (EcoRI/XhoI site) of a pGEX-4T1 vector (Amersham Pharmacia) which was then transformed into E. coli BL21 for protein expression, IPTG (1 mM) was added to the LB culture OD600=0.6) of the transformed bacteria, followed by shaking culture at 37° C. for 4 hours. The cells were disrupted using a sonicator and the expressed GST/QP-C fusion protein was purified by addition of glutathione agarose heads (SIGMA®). In order to remove a GST portion of the fusion protein, thrombin (Amersham Pharmacia) was added thereto at room temperature, followed by overnight stirring. Only the supernatant containing the QP-C protein was recovered by centrifugation (see FIG. 2). […]
The binding sensorgram containing association and dissociation curves was obtained by BIACORE® 2000, and 50 mM NaOH (5 μl) was poured on the sensor chip surface to result in regeneration. […] A surface plasmon resonance response curve was analyzed using BIACORE® Evaluations software, version 3.1 (see FIG. 8).

HIV = conditions: cited from earlier work
[6] = tested on: embryonic chick chorioallantoic membrane (CAM); conditions: cited from earlier work
[7] = tested on: human umbilical vein endothelial cells (HUVEC); conditions: cited from earlier work

C/C1=C/CC/C(C)=C/CC2(C)C(=O)C(O)=C(C(C)COC(=O)CCCCCNC(=O)CCCCCNC(=O)Cc3c(C)c4ccc(N)cc4oc3=O)C2C/C=C(\C)C(O)CC1 (stereo not shown) [coumarin-terpestacin]
Fluorescence staining of HUVECs ([1]; 20 μM, 2 hours): intense blue fluorescence in the cytoplasm

O=C1Sc2ccc(S(=O)(=O)Nc3ccc(O)c4ccccc34)c3cccc1c23 [HDNT, 6-((1-hydroxynaphthalen-4-ylamino)dioxysulfone)-2H-naphtho[1,8-bc]thiophen-2-one]
VEGF-mediated invasion of HUVECs [2]: inhibited VEGF-mediated tube formation and invasion of HUVECs in a concentration-dependent manner | Change of mitochondrial membrane potential (JC-1 red/green fluorescence) [3]: disrupts the mitochondrial membrane potential | Inhibition of binding between coumarin-terpestacin and QP-C (blue fluorescence in the cytoplasm) [1]: blue fluorescence was significantly decreased | Inhibition of binding between biotinylated terpestacin and QP-C-expressing bacteriophage T7 [4]: effectively inhibited | VEGF-mediated tube formation of HUVECs [5]: inhibited VEGF-mediated tube formation and invasion of HUVECs in a concentration-dependent manner | Inhibition of the binding between biotin-terpestacin and QP-C protein (purified QP-C protein): 40%

C/C1=C\C[C@]2(C)C(=O)C(O)=C([C@H](C)CO)[C@H]2C/C=C(\C)[C@@H](O)CC/C(C)=C/CC1 [terpestacin]
Formation of syncytium during HIV infections (HIV): inhibit the formation of syncytium | Angiogenesis of embryonic chick chorioallantoic membrane (CAM) in vivo [6]: strongly inhibits angiogenesis | Inhibition of binding between coumarin-terpestacin and QP-C (blue fluorescence in the cytoplasm) [1]: significant attenuation of blue fluorescence | Inhibition of binding between biotinylated terpestacin and QP-C-expressing bacteriophage T7 [4]: significantly inhibited | Angiogenic responses of HUVEC in vitro [7]: strongly inhibits angiogenic responses | inhibition at 25 µM (purified QP-C protein; read-out: Inhibition of the binding between biotin-terpestacin and QP-C protein): ≤ 60%
